{"source": "patent US20090155335A1", "about": "“NON-LEACHING NON-FOULING ANTIMICROBIAL COATINGS” (priority 2007, published 2009)", "origin": "cited, not measured here", "system": "methicillin resistant and vancomycin intermediate-resistant Staphylococcus aureus", "conditions": "Dacron graft soaked in dermaseptin solution, rat"}
{"substance": "dermaseptin", "values": [{"measurement": "efficacy of released dermaseptin against resistant S. aureus", "value": "effective"}]}
